Key:
[1] = test system: cuboids from a human colorectal tumor biopsy; test: CytC in supernatant of drug-treated human tumor cuboids, ELISA; format: cell-based; conditions: three days treatment; duplicated supernatant samples; same drug concentrations
Protocol: (§1) Measurement of CytC from the supernatant of human microdissected cancer tissue cultured with drugs using the aptasensor platform. A study was conducted to assess the aptasensor platform's ability to quantify CytC secretion from human cuboids after drug treatments for three days in culture with Staurosporine, FOLFOX (a combination of fluorouracil and oxaliplatin), and FOLFIRI (a combination of fluorouracil and irinotecan), in comparison to the dimethyl sulfoxide (DMSO) vehicle control. Uniform-sized cuboids were prepared from a human colorectal tumor biopsy. Each drug condition was prepared in duplicate. Subsequently, the supernatants were collected and the level of CytC released from the cuboids after cell death was measured using the aptasensor platform. To validate the platform's measurements, the results were compared with those obtained from ELISA (FIG. 4D). […] In some cases, the platform even indicated higher production rates. Duplicates for both the sensor and for the ELISA were consistent. […] While the trend in measurements for supernatant 1 and supernatant 2 was similar between sensor reading and ELISA, the higher concentration observed in sensor readings may stem from variations in the sensor-specific calibration curves.
(§2) Human colorectal cancer tumor supernatant. Colorectal tumor biopsy was obtained from a person with metastatic cancer who had been off treatment for a year. […]

[2] = test system: cuboids from a human colorectal tumor biopsy; test: CytC in supernatant of drug-treated human tumor cuboids, aptasensor platform; format: cell-based; conditions: three days treatment; Staurosporine 1 μM, FOLFOX 1 μg/mL 5FU+1 μg/mL Oxaliplatin, FOLFIRI 5FU+Irinotecan
Protocol: as §1, §2

## CN[C@@H]1C[C@H]2O[C@@](C)([C@@H]1OC)n1c3ccccc3c3c4c(c5c6ccccc6n2c5c31)C(=O)NC4 [Staurosporine]
[1]
  CytC production relative to DMSO control vehicle (ELISA): 4.23 fold
[2]
  CytC production relative to DMSO control vehicle (aptasensor platform): ~3 fold

Source: US20240369511A1, “INTEGRATED ELECTROCHEMICAL APTASENSORS FOR MEASURING CELL DEATH AND CYTOKINE ACTIVITY FROM INTACT TISSUE SAMPLES” (University of Washington, priority 2023, published 2024)
